Data as given in patent US20080255215A1, “Combinations of Alkylalkanolamines and Alkylbisalkanolamines for Antimicrobial Compositions” (priority 2005, published 2008).

How the values were obtained:
[1] = test system: Pseudomonas aerguinosa (ATCC 15442); test: Kinetic absorbance assay of bacterial growth (maximum growth slope), amines and amine pairs with KATHON 886MW biocide; format: cell-based; conditions: KATHON 100 ppm; for Maximum Growth Slope: pH 8.5
Experimental: A kinetic assay was run via absorbance measurements in a 384 well micro-titer plate with 75 μL) plate volume. Pseudomonas aerguinosa (ATCC 15442) was used as the inoculum for this kinetic assay. The organism was grown overnight in Trypticase Soy broth, pelleted, and resuspended in new medium at half its original density. The final inoculum was determined from plate counts on TSA plates spread at the time of use as 8.0×10E10 CFU/mL Each well of the microtiter plate (well volume=75 μL) was filled with 25 μL of a buffered aqueous solution of the amine being tested at the concentration necessary to yield the desired test concentration after dilution, enough Tris buffer to keep the well pH at 8.5, 25 μL of a biocide solution, and 25 μL reconstituted bacterial culture. The pH was adjusted to 8.5 with the buffer. The biocide was KATHON 886MW. The following amines were tested: butylaminoethanol (BAE, a compound according to formula I), butyldiethanolamine (BDEA, a compound according to formula II), octylaminoethanol (OAE, a compound according to formula I), and octyldiethanolamine (ODEA, a compound according to formula II), all at 99% purity): […]
The columns were laid out as follows:
The experiment ran for 20 hours with absorbance measurements taken once every 15 minutes. The data was processed by taking 10 point maximum growth slopes (milliOD per minute) after a 3 hour delay. The results of the above series are shown in FIG. 1, and selected data are tabulated in Table 2, in which biocide (KATHON) was used at a 100 ppm level.

[2] = test system: Pseudomonas aerguinosa (ATCC 27853); test: End-point absorbance assay of bacterial growth in 384 well microtiter plate, single amines with KATHON 886MW biocide; format: cell-based; conditions: for Effectiveness as an enhancer for the biocide: amine 400 ppm with KATHON 886MW up to 50 ppm, assessment in words; for End-point absorbance (660 nm): amine 400 ppm, 48 hours growth, pH 8.5
Experimental: A kinetic assay of bacterial growth in a 384 well microtiter plate was monitored by absorbance at 660 nm. The bacteria was Pseudomonas aerguinosa (ATCC 27853). The organism was grown overnight in Trypticase Soy Broth (TSB), pelleted, and resuspended in new medium at half its original density. The final inoculum was determined from plate counts on Trypticase Soy Agar (TSA) plates spread at the time of use as 4.5×10E10 CFU/mL. Each well of the microtiter plate (well volume=75 μL) was filled with 25 μL of a buffered aqueous solution of the amine being tested at the concentration necessary to yield the desired test concentration after dilution, enough Tris buffer to keep the well pH at 8.5, 25 μL of a biocide solution, and 25 μL reconstituted bacterial culture. The biocide solution and bacterial inoculum were mixed with TSB nutrient. The biocide utilized was KATHON 886MW (supplied by Rohm & Haas Company, Springhouse, Pa.). KATHON 886 MW is a 15% active solution of ⅔ CMIT (5-chloro-2-methyl-4-isothiazolin-3-one) and ⅓ MIT (2-methyl-4-isothiazolin-3-one). The experimental assessment of bacterial growth was made through an end-point absorbance measurement taken after 48 hours of growth in the various media. The concentration of the 4 different amines was 400 ppm. The concentration of the biocide was an experimental variable. The amines employed in this experiment were decyloxypropylaminopropylamine (DOPAPA), octylaminoethanol (OAE, a compound according to formula I), octyldiethanolamine (ODEA, a compound according to formula II), and dicyclohexylamine (DCHA). All absorbance values are the averages of at least three replicates.

[3] = amine 2000 ppm, 10 point maximum slope after 3 hour delay

| SMILES | Comparative effectiveness (runs of Table 2) ([1]; assessment in words) | Maximum Growth Slope ([1]; amine 1000 ppm) [MilliOD/min] | Maximum Growth Slope [1, 3] [MilliOD/min] | Effectiveness as an enhancer for the biocide [2] | End-point absorbance (660 nm) ([2]; KATHON 886MW loading 0 ppm) | End-point absorbance (660 nm) ([2]; KATHON 886MW loading 12 ppm) | End-point absorbance (660 nm) ([2]; KATHON 886MW loading 25 ppm) | End-point absorbance (660 nm) ([2]; KATHON 886MW loading 50 ppm) | Maximum Growth Slope ([1]; amine 250 ppm) [MilliOD/min] | Maximum Growth Slope ([1]; amine 500 ppm) [MilliOD/min] |
| --- | --- | --- | --- | --- | --- | --- | --- | --- | --- | --- |
| CCCCNCCO [BAE, butylaminoethanol] | more effective than BDEA alone | 0.9 | 0.4 | – | – | – | – | – | – | – |
| C1CCC(NC2CCCCC2)CC1 [DCHA, dicyclohexylamine, reference compound] | – | – | – | marginal enhancer | 0.14 | 0.14 | 0.10 | 0.07 | – | – |
| CCCCCCCCN(CCO)CCO [ODEA, octyldiethanolamine] | – | – | – | moderately effective enhancer | 0.12 | 0.08 | 0.08 | 0.03 | 0.6 | 0.4 |
| CCCCCCCCCCOCCCNCCCN [DOPAPA, decyloxypropylaminopropylamine, reference compound] | – | – | – | weak or ineffective | app. 0.3 | app. 0.3 | app. 0.3 | app. 0.3 | – | – |
| CCCCCCCCNCCO [OAE, octylaminoethanol] | – | – | – | excellent enhancer | 0 | 0 | 0 | 0 | 0.4 | −0.1 |
| CCCCN(CCO)CCO [BDEA, butyldiethanolamine] | – | 1.3 | 0.8 | – | – | – | – | – | – | – |
